Reference: patent US20090005270A1 (priority 2005, published 2009)
Read-outs that look alike come from different tables or passages of the source.

Legend:
human recombinant CYP3A4 = human recombinant CYP3A4 (Homo sapiens, UniProt P08684); assay: Inhibition of dibenzylfluorescein metabolism by cDNA-expressed CYP3A4 (fluorimetric); conditions: read-out: IC50 (concentration that yields 50% inhibition of the metabolism of dibenzyl-fluorescein), dibenzyl-fluorescein 5 · 10^−7 M
human recombinant CYP2A6 [1] = target: T1, human recombinant CYP2A6 (Homo sapiens, UniProt P10635); conditions: recombinant enzyme
T1 sequence (P10635 whole entry): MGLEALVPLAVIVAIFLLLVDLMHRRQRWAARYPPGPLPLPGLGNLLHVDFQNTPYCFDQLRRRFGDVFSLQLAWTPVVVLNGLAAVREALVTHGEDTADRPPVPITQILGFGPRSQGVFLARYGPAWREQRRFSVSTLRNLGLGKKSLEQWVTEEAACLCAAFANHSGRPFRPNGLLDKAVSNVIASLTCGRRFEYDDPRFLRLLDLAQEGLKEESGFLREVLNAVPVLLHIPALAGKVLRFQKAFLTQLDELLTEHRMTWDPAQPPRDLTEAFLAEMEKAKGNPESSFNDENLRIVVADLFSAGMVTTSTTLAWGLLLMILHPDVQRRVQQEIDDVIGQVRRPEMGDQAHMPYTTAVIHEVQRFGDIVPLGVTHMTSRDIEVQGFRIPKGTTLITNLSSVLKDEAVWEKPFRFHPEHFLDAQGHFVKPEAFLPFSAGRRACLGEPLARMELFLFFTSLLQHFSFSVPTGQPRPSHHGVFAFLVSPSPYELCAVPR

[2] = poor metabolizers, 15 mg dose; cited from earlier work
[3] = cited from earlier work
human recombinant CYP2A6 [4] = target: T1, human recombinant CYP2A6; assay: biochemical
[5] = in vivo; cited from earlier work

human recombinant CYP3A4, sequence (P08684 whole entry): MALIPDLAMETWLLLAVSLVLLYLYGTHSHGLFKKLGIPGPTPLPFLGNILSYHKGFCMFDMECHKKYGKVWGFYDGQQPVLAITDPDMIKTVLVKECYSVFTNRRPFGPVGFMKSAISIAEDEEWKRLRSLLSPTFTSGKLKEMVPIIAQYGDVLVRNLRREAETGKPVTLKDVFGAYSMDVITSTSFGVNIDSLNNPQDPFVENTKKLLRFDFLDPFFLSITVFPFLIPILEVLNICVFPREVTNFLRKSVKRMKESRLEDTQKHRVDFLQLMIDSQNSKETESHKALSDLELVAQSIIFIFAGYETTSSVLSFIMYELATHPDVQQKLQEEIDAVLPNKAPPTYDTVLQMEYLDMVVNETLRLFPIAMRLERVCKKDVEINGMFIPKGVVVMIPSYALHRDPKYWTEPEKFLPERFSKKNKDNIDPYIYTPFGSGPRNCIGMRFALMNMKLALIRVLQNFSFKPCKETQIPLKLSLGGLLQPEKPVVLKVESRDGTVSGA

## COc1ccc(CCN(CCCC(C#N)(c2ccc(OC)c(OC)c2)C(C)C)CC(F)(F)F)cc1OC (stereo not shown) [N-(2,2,2-trifluoroethyl)norverapamil]
Human recombinant CYP3A4
  IC50: 1930 nM

## CN1CC[C@]23CCCC[C@H]2[C@H]1Cc1ccc(OCC(F)(F)F)cc13 [O-(2,2,2-trifluoroethyl)-N-methylmorphinan]
Human recombinant CYP2A6 [1]
  IC50: 425 nM

## Br.COc1ccc2c(c1)[C@@]13CCCC[C@H]1[C@@H](C2)N(C)CC3.O [Dextromethorphan, 3 Methoxy-17-methylmorphinan hydrobromide monohydrate]
[2]
  ratio of metabolite to parent drug in 8 hour urine sample: 10 to 1
[3]; fast metabolizers, 30 mg dose, four hours post ingestion
  plasma level: less than 5 ng/mL
[3]; intermediate metabolizers, oral 30 mg, 4 hours
  plasma level: 10 to 20 ng/mL
[3]; intermediate metabolizers, oral 30 mg, 24 hours postingestion
  plasma level: less than 5 ng/mL
[3]; oral 30 mg, 4 hours (continues the poor metabolizers passage of b121)
  plasma level: greater than 10 ng/mL
[3]; oral 30 mg, 24 hours (continues the poor metabolizers passage of b121)
  plasma level: greater than 5 ng/mL
Human recombinant CYP2A6 [4]
  IC50: 1820 nM
[5]
  part of the dose forming minor metabolites (D-methoxymorphinane, D-hydroxmorphinane): Less than 15%
